Measured values published in patent US20250127778A1, “CANCER IMMUNOTHERAPY COMPOSITION CONTAINING INTERACTION INHIBITOR OF STING AND TRIM29 AS ACTIVE INGREDIENT” (SPARK BIOPHARMA, INC, priority 2021, published 2025).

Columns and labels:
[1] = test system: phosphorylation of downstream signaling proteins TBK1 and IRF3; assay: Western blotting of STING sub-immune signaling pathway activation; type: cell-based; conditions: in combination with cGAMP; FIG. 7
Method: First, the A431 cell line was seeded in a transparent 12-well plate and cultured for one day. Thereafter, the cells were treated with the compounds of Formulas 1 to 6, respectively, and then cultured for additional 24 hours. Finally, after supernatant culture medium of the cells was removed, the remaining supernatant was diluted and removed with PBS (phosphate buffer saline) to prepare a Western blotting sample. All procedures for preparing Western blotting sample were performed at 4° C. […] The protein concentration of the supernatant was measured by using the Micro BCA™ protein assay kit (ThermoFisher) according to the protocol of the manufacturer. […] The treated samples were analyzed by SDS-PAGE, then transferred to a PVDF membrane, and cultured in a TBST solution containing 4% BSA for 30 minutes. […] Finally, after four TBST washing processes, the solution was developed with an ECL (enhanced chemiluminescence) prime solution of Amersham, the chemical luminescence signal was measured by using ChemiDoc MP of Bio-Rad Laboratories, Inc., the obtained results were quantified by using the ImageLab 6.0 program, and the results were plotted by using the Prism 8.0 program. […]

[2] = biological target: STING (Homo sapiens, UniProt Q86WV6); assay: Western blotting of STING under co-treatment with MG132, actinomycin D or cycloheximide; type: cell-based
STING, sequence (Q86WV6 whole entry H232R, species assumed): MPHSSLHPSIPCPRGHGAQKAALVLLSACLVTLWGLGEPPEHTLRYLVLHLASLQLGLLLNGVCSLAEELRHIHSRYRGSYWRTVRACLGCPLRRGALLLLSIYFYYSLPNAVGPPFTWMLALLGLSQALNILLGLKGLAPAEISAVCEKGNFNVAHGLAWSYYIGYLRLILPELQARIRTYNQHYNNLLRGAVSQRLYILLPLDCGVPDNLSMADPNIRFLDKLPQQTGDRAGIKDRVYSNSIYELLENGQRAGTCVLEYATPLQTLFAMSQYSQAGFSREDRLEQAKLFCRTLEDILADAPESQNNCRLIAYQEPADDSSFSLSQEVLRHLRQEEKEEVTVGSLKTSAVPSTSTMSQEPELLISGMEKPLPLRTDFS
Excerpt: In addition, in order to cross-validate the results of the ELISA experiment, it was confirmed whether the STING increasing effect of the compound of Formula 1 was disappeared when ubiquitinated proteins were prevented from being degraded by treatment with MG132.
In addition, in order to exclude the possibility that the increase in STING expression by the compound of Formula 1 can occur through cellular mechanisms other than ubiquitin-mediated reactions, the transcription inhibitor actinomycin D (ActD) and the ribosome translation inhibitor cycloheximide (CHX) were co-treated with the compound of Formula 1, and whether the STING increase effect was still maintained was confirmed by using the Western blotting method.

[3] = test system: bone-marrow derived dendritic cells (BMDC) and OT-1 T cells; assay: BMDC antigen presentation to OT-1 T cells with OVA antigen; type: cell-based, mouse; conditions: OVA antigen directly treated, FIG. 18
Method: It was confirmed that the compound of Formula 1 increased the antigen presentation efficacy of bone-marrow derived dendritic cells (BMDC) of a STING agonist to cytotoxic T cells (CD8^+ T cells).
Specifically, mouse bone marrow-derived cells were obtained from the femur and tibia of 8-week-old female C57BL/6 mice. 2×10^6 of cells were cultured in 2 mL of a MLR medium (RPMI 1640 medium supplemented with 10% FBS, 1% 1M HEPES, 1% glutamine, and 1% antibiotic-antimycotic) supplemented with 10 ng/ml mGM-CSF and 5 ng/ml IL-4 to be differentiated into dendritic cells (BMDC). On the third day from the start of cell culturing, 2 mL of the MLR medium was added. Additionally, on the sixth day, 2×10^6 dendritic cells were treated with 50 μg/mL OVA protein and/or 100 ng/ml lipopolysaccharide (LPS), and cGAMP and/or the compound represented by Formula 1 at various concentrations. Thereafter, the cells were cultured at 37° C. in a 5% CO2 incubator for 24 hours, and then flow cytometry of dendritic cell activation markers (CD80, CD86, MHC II) was performed. Subsequently, 5×10^4 dendritic cells were incubated with 2×10^5 CFSE-labeled OT-1 T cells (OVA-specific CD8^+ T cells) to observe OT-1 T cell proliferation.

COc1ccc(CC2=CN(c3ccc(C(=O)NC[C@H]4CCCO4)cc3[N+](=O)[O-])[C@H](C(C)C)C(=O)N2Cc2ccc(O)cc2)cc1 [Formula 1, 4-((R)-4-(4-hydroxybenzyl)-2-isopropyl-5-(4-methoxybenzyl)-3-oxo-3,4-dihydropyrazin-1 (2H)-yl)-3-nitro-N-(((R)-tetrahydrofuran-2-yl)methyl)benzamide]
degree of phosphorylation of TBK1 and IRF3 [1]: further increased
intracellular amount of STING under transcription and translation inhibition ([2]; co-treated with actinomycin D (ActD) and cycloheximide (CHX), Western blotting, FIG. 10): still increased the intracellular amount of STING
STING amount under MG132 treatment ([2]; co-treated with proteasome inhibitor MG132, Western blotting, FIG. 9): STING was not increased
OT-1 T cell proliferation (BMDC activation by cGAMP and antigen presentation efficacy) [3]: promoted cell proliferation in a concentration-dependent manner
